pEC50, pIC50: −log10 of the molar value. Where two headings read alike, the source gives them in different places.
Test system: 280 human cancer cell lines
Experiment: OncoPanel cell proliferation assay (10-day)
Assay type: cell-based
Details: Homo sapiens; for GI50: read-out: Cell Count GI50; for pIC50: read-out: Cell Count IC50; for pEC50: read-out: Cell Count EC50
[1] = C-4-II, C-4 II, Female GU - Cervix
[2] = C-33-A, C-33A, Female GU - Cervix
[3] = CAL-62, CAL-62, Endocrine - Thyroid
[4] = CCF-STTG1, CCF-STTG1, CNS - Glioma
[5] = CGTH-W-1, CGTH-W-1, Endocrine - Thyroid
[6] = CHP-212, CHP-212, CNS - Neuroblastoma
[7] = COLO-320-HSR, Colo 320 HSR, Colon
[8] = COLO-829, COLO 829, Skin (Melanoma)
[9] = COR-L105, COR-L105, Lung - NSCLC
[10] = Ca-Ski, Ca Ski, Female GU - Ovary

**Q.** `CC(C)=CCC[C@@H]1C(O)Oc2c(C)cc(O)c3c2[C@H]1CC[C@H]3C` (some centres unmarked) [Compound 2, 5,18-epoxyserrulat-14-en-8,18-diol] was tested. Which GI50 (BT-474, BT474, Breast) did it give?
**A.** > 30 µM

**Q.** And the pIC50 (BT-474, BT474, Breast)?
**A.** < 4.52

**Q.** And the pEC50 (BT-549, BT-549, Breast)?
**A.** 4.59

**Q.** And the GI50 (BT-549, BT-549, Breast)?
**A.** 25.8 µM

**Q.** And the pIC50 (BT-549, BT-549, Breast)?
**A.** 4.59

**Q.** And the pEC50 (BV-173, BV-173, Leukemia)?
**A.** 5.03

**Q.** What about the GI50 (BV-173, BV-173, Leukemia) of the same molecule?
**A.** 9.33 µM

**Q.** And the pIC50 (BV-173, BV-173, Leukemia)?
**A.** 5.03

**Q.** And the pEC50 (BXPC-3, BxPC-3, Pancreas)?
**A.** 4.89

**Q.** What about the GI50 (BXPC-3, BxPC-3, Pancreas) of the same molecule?
**A.** > 30 µM

**Q.** What about the pIC50 (BXPC-3, BxPC-3, Pancreas) of the same molecule?
**A.** < 4.52

**Q.** And the pEC50 (BeWo, Placenta)?
**A.** 5.11

**Q.** What about the GI50 (BeWo, Placenta) of the same molecule?
**A.** > 30 µM

**Q.** And the pIC50 (BeWo, Placenta)?
**A.** < 4.52

**Q.** And the pEC50 (C32, Skin (Melanoma))?
**A.** 4.72

**Q.** And the GI50 (C32, Skin (Melanoma))?
**A.** 15.5 µM

**Q.** And the pIC50 (C32, Skin (Melanoma))?
**A.** 4.72

**Q.** What about the pEC50 [1] of the same molecule?
**A.** 5.05

**Q.** And the GI50 [1]?
**A.** 9 µM

**Q.** And the pIC50 [1]?
**A.** 5.04

**Q.** And the pEC50 [2]?
**A.** 4.92

**Q.** What about the GI50 [2] of the same molecule?
**A.** 11.9 µM

**Q.** And the pIC50 [2]?
**A.** 4.92

**Q.** And the pEC50 (CA46, CA46, Lymphoma)?
**A.** 5.42

**Q.** And the GI50 (CA46, CA46, Lymphoma)?
**A.** 3.82 µM

**Q.** And the pIC50 (CA46, CA46, Lymphoma)?
**A.** 5.42

**Q.** What about the pEC50 (CAKI-1, Caki-1, Kidney) of the same molecule?
**A.** 6.77

**Q.** What about the GI50 (CAKI-1, Caki-1, Kidney) of the same molecule?
**A.** > 30 µM

**Q.** What about the pIC50 (CAKI-1, Caki-1, Kidney) of the same molecule?
**A.** < 4.52

**Q.** What about the pEC50 (CAKI-2, Caki-2, Kidney) of the same molecule?
**A.** 4.54

**Q.** What about the GI50 (CAKI-2, Caki-2, Kidney) of the same molecule?
**A.** 28.9 µM

**Q.** What about the pIC50 (CAKI-2, Caki-2, Kidney) of the same molecule?
**A.** 4.54

**Q.** What about the pEC50 (CAL-27, Cal 27, Head and Neck) of the same molecule?
**A.** 5.12

**Q.** And the GI50 (CAL-27, Cal 27, Head and Neck)?
**A.** 7.62 µM

**Q.** What about the pIC50 (CAL-27, Cal 27, Head and Neck) of the same molecule?
**A.** 5.12

**Q.** What about the pEC50 [3] of the same molecule?
**A.** 5.25

**Q.** And the GI50 [3]?
**A.** 5.78 µM

**Q.** What about the pIC50 [3] of the same molecule?
**A.** 5.24

**Q.** And the pEC50 (CAMA-1, CAMA-1, Breast)?
**A.** < 4.52

**Q.** What about the GI50 (CAMA-1, CAMA-1, Breast) of the same molecule?
**A.** > 30 µM

**Q.** What about the pIC50 (CAMA-1, CAMA-1, Breast) of the same molecule?
**A.** < 4.52

**Q.** What about the pEC50 (CAPAN-1, Capan-1, Pancreas) of the same molecule?
**A.** < 4.52

**Q.** And the GI50 (CAPAN-1, Capan-1, Pancreas)?
**A.** > 30 µM

**Q.** What about the pIC50 (CAPAN-1, Capan-1, Pancreas) of the same molecule?
**A.** < 4.52

**Q.** And the pEC50 [4]?
**A.** < 4.52

**Q.** What about the GI50 [4] of the same molecule?
**A.** > 30 µM

**Q.** And the pIC50 [4]?
**A.** < 4.52

**Q.** What about the pEC50 (CCRF-CEM, CCRFCEM, Leukemia) of the same molecule?
**A.** 4.94

**Q.** And the GI50 (CCRF-CEM, CCRFCEM, Leukemia)?
**A.** 11.4 µM

**Q.** What about the pIC50 (CCRF-CEM, CCRFCEM, Leukemia) of the same molecule?
**A.** 4.94

**Q.** And the pEC50 (CEM/C1, CEM-C1, Leukemia)?
**A.** 5.49

**Q.** What about the GI50 (CEM/C1, CEM-C1, Leukemia) of the same molecule?
**A.** 3.26 µM

**Q.** And the pIC50 (CEM/C1, CEM-C1, Leukemia)?
**A.** 5.49

**Q.** What about the pEC50 (CFPAC-1, CFPAC-1, Pancreas) of the same molecule?
**A.** 4.91

**Q.** And the GI50 (CFPAC-1, CFPAC-1, Pancreas)?
**A.** 13.4 µM

**Q.** What about the pIC50 (CFPAC-1, CFPAC-1, Pancreas) of the same molecule?
**A.** 4.87

**Q.** And the pEC50 [5]?
**A.** 5.23

**Q.** And the GI50 [5]?
**A.** 5.81 µM

**Q.** And the pIC50 [5]?
**A.** 5.23

**Q.** And the pEC50 (CHL-1, CHL-1, Skin (Melanoma))?
**A.** 4.84

**Q.** What about the GI50 (CHL-1, CHL-1, Skin (Melanoma)) of the same molecule?
**A.** 14.2 µM

**Q.** What about the pIC50 (CHL-1, CHL-1, Skin (Melanoma)) of the same molecule?
**A.** 4.84

**Q.** What about the pEC50 [6] of the same molecule?
**A.** 4.94

**Q.** And the GI50 [6]?
**A.** 11.1 µM

**Q.** And the pIC50 [6]?
**A.** 4.94

**Q.** What about the pEC50 (CML-T1, CML-T1, Leukemia) of the same molecule?
**A.** 5.43

**Q.** What about the GI50 (CML-T1, CML-T1, Leukemia) of the same molecule?
**A.** 3.68 µM

**Q.** And the pIC50 (CML-T1, CML-T1, Leukemia)?
**A.** 5.43

**Q.** And the pEC50 (COLO 201, Colo 201, Colon)?
**A.** 5.07

**Q.** What about the GI50 (COLO 201, Colo 201, Colon) of the same molecule?
**A.** 8.45 µM

**Q.** And the pIC50 (COLO 201, Colo 201, Colon)?
**A.** 5.07

**Q.** What about the pEC50 (COLO 205, Colo 205, Colon) of the same molecule?
**A.** 4.97

**Q.** What about the GI50 (COLO 205, Colo 205, Colon) of the same molecule?
**A.** 10.7 µM

**Q.** What about the pIC50 (COLO 205, Colo 205, Colon) of the same molecule?
**A.** 4.97

**Q.** And the pEC50 (COLO 320DM, Colon)?
**A.** 5.11

**Q.** And the GI50 (COLO 320DM, Colon)?
**A.** 7.67 µM

**Q.** What about the pIC50 (COLO 320DM, Colon) of the same molecule?
**A.** 5.11

**Q.** What about the pEC50 [7] of the same molecule?
**A.** 4.94

**Q.** And the GI50 [7]?
**A.** 11.6 µM

**Q.** What about the pIC50 [7] of the same molecule?
**A.** 4.94

**Q.** And the pEC50 [8]?
**A.** 5.27

**Q.** And the GI50 [8]?
**A.** 4.93 µM

**Q.** And the pIC50 [8]?
**A.** 5.27

**Q.** What about the pEC50 (COR-L23, COR-L23, Lung - NSCLC) of the same molecule?
**A.** 4.62

**Q.** What about the GI50 (COR-L23, COR-L23, Lung - NSCLC) of the same molecule?
**A.** 23.6 µM

**Q.** And the pIC50 (COR-L23, COR-L23, Lung - NSCLC)?
**A.** 4.62

**Q.** What about the pEC50 [9] of the same molecule?
**A.** 5.32

**Q.** And the GI50 [9]?
**A.** 4.61 µM

**Q.** What about the pIC50 [9] of the same molecule?
**A.** 5.32

**Q.** What about the pEC50 (CRO-AP2, CRO-AP2, Lymphoma) of the same molecule?
**A.** 5.20

**Q.** And the GI50 (CRO-AP2, CRO-AP2, Lymphoma)?
**A.** 6.36 µM

**Q.** What about the pIC50 (CRO-AP2, CRO-AP2, Lymphoma) of the same molecule?
**A.** 5.20

**Q.** And the pEC50 [10]?
**A.** < 4.52

**Q.** And the GI50 [10]?
**A.** > 30 µM

**Q.** And the pIC50 [10]?
**A.** < 4.52

**Q.** What about the pEC50 (Calu-1, Calu1, Lung - NSCLC) of the same molecule?
**A.** 4.86

**Q.** And the GI50 (Calu-1, Calu1, Lung - NSCLC)?
**A.** 13.8 µM

**Q.** What about the pIC50 (Calu-1, Calu1, Lung - NSCLC) of the same molecule?
**A.** 4.86

**Q.** And the pEC50 (Calu-6, Calu6, Lung - NSCLC)?
**A.** 4.84

**Q.** And the GI50 (Calu-6, Calu6, Lung - NSCLC)?
**A.** 15.7 µM

**Q.** And the pIC50 (Calu-6, Calu6, Lung - NSCLC)?
**A.** 4.78
